The values that follow come from patent US20240374590A1, “COMPOSITIONS AND METHODS FOR TREATING CANCER” (A2A PHARMACEUTICALS, INC., priority 2021, published 2024).

Experiment [1] concerns JIMT-1 human breast cancer cell line. Description: Cell viability assay (SRB) in JIMT-1. Particulars: 72 hours after treatment, read-out: JIMT1 IC50. Type of experiment: cell-based. How it is done: (§1) Human colon carcinoma cell line HCT-116 was a kind gift from Igor Ronninson from University of South Caroli, Columbia, USA. Human breast cancer cell line, JIMT-1 was kindly provided by Ali Osmay Güre from Bilkent University, Ankara, Turkey. Cells were cultured in Dulbecco's modified Eagle's medium (Lonza, NJ, USA), supplemented with 10% fetal bovine serum (FBS, Lonza), 1% non-essential amino acid (NEAA), 2 mM L-glutamine (Sigma Aldrich, MO, USA) and 50 U/ml penicillin/streptomycin (P/S). HCT-116 cells were cultured in McCoy's 5A (modified) (Gibco) medium supplemented with FBS, NEAA, L-glutamine and P/S. All cell lines were tested regularly using MycoAlert Mycoplasma Detection Kit (Lonza). The cumulative length of the cells between thawing and use in the experiments was less than 20 passages.
(§2) Newly synthesized molecules were dissolved in 100% DMSO to yield a stock concentration of 10 mM. For cell viability assay, JIMT-1 (3×10^3 cells/well) and HCT-116 (4×10^3), cells were seeded into 96-well plates, and 24 hours after cell seeding inhibitor treatments were performed at different concentrations. Cell viability was measured 72 hours after treatment with Sulforhodamine B (SRB, Sigma Aldrich) assay as recommended by the manufacturer.

Experiment [2] concerns HCT-116 human colon carcinoma cell line. Description: Cell viability assay (SRB) in HCT-116. Format: cell-based. Particulars: 72 hours after treatment, read-out: HCT116 IC50. How it is done:
as §1, §2

Molecules are shown by their SMILES.

With `COc1ccc(-c2cc(Nc3ccnc(N4CCOCC4)n3)[nH]n2)cc1` [Compound 5, N-(3-(4-methoxyphenyl)-1H-pyrazol-5-yl)-2-morpholinopyrimidin-4-amine], the figures for the IC50 in experiment [1] and in experiment [2] were 5 nM and 47 nM, respectively.

With `COc1ccc(-c2cc(Nc3ccnc(N4CCOCC4)n3)[nH]n2)c(Cl)c1` [Compound 27, N-(3-(2-chloro-4-methoxyphenyl)-1H-pyrazol-5-yl)-2-morpholinopyrimidin-4-amine], the IC50 (usually the concentration that gives 50% inhibition) is 367 nM in experiment [1] and 321 nM in experiment [2].

Turning to `COc1ccc(-c2cc(Nc3ccnc(N4CCOCC4)n3)[nH]n2)c(F)c1` [Compound 56, N-(3-(2-fluoro-4-methoxyphenyl)-1H-pyrazol-5-yl)-2-morpholinopyrimidin-4-amine], the IC50 in experiment [1] came out at 23 nM; in experiment [2] it was 36 nM.

Turning to `COc1ccc(-c2cc(Nc3ccnc(N4C[C@@H](C)O[C@@H](C)C4)n3)[nH]n2)cc1` [Compound 59b, 2-((2R,6S)-2,6-dimethylmorpholino)-N-(3-(4-methoxyphenyl)-1H-pyrazol-5-yl)pyrimidin-4-amine], the results for the IC50 in experiment [1] and in experiment [2] were 17 nM and 3 nM, respectively.

For `COc1ccc(-c2csc(Nc3ccnc(N4CCOCC4)n3)n2)cc1` [Compound 174, 4-(4-methoxyphenyl)-N-(2-morpholinopyrimidin-4-yl)thiazol-2-amine], in experiment [1], the IC50 was no less than 10000 nM.

With `COc1ccc(-c2coc(Nc3ccnc(N4CCOCC4)n3)n2)cc1` [Compound 177, 4-(4-methoxyphenyl)-N-(2-morpholinopyrimidin-4-yl)oxazol-2-amine], the IC50 in experiment [1] was no less than 10000 nM.

`C[C@@H]1CN(c2nccc(Nc3cc(-c4ccc(Cl)cc4)n[nH]3)n2)C[C@H](C)O1` [Compound 197, N-(3-(4-chlorophenyl)-1H-pyrazol-5-yl)-2-((2R,6S)-2,6-dimethylmorpholino)pyrimidin-4-amine]: in experiment [2], the IC50 is 255 nM.

Consider `Cc1ccc(-c2cc(Nc3ccnc(N4C[C@@H](C)O[C@@H](C)C4)n3)[nH]n2)cc1` [Compound 198, 2-((2R,6S)-2,6-dimethylmorpholino)-N-(3-(p-tolyl)-1H-pyrazol-5-yl)pyrimidin-4-amine], for which the IC50 in experiment [2] was 80 nM.

On to `CCc1ccc(-c2cc(Nc3ccnc(N4C[C@@H](C)O[C@@H](C)C4)n3)[nH]n2)cc1` [Compound 199, 2-((2R,6S)-2,6-dimethylmorpholino)-N-(3-(4-ethylphenyl)-1H-pyrazol-5-yl)pyrimidin-4-amine], for which the IC50 in experiment [2] was 90 nM.

For `C[C@@H]1CN(c2nccc(Nc3cc(-c4ccc(S(C)(=O)=O)cc4)n[nH]3)n2)C[C@H](C)O1` [Compound 206, 2-((2R,6S)-2,6-dimethylmorpholino)-N-(3-(4-(methylsulfonyl)phenyl)-1H-pyrazol-5-yl)pyrimidin-4-amine], in experiment [2], the IC50 came out at 4640 nM.

With `C[C@@H]1CN(c2nccc(Nc3cc(-c4ccc(N5CCCC5)cc4)n[nH]3)n2)C[C@H](C)O1` [Compound 209, 2-((2R,6S)-2,6-dimethylmorpholino)-N-(3-(4-(pyrrolidin-1-yl)phenyl)-1H-pyrazol-5-yl)pyrimidin-4-amine], in experiment [2], the IC50 worked out at 108 nM.

Regarding `COc1ccc(-c2cc(Nc3nc(N4C[C@@H](C)O[C@@H](C)C4)ncc3C)[nH]n2)c(F)c1` [Compound 283, 2-((2R,6S)-2,6-dimethylmorpholino)-N-(3-(2-fluoro-4-methoxyphenyl)-1H-pyrazol-5-yl)-5-methylpyrimidin-4-amine], the IC50 in experiment [1] came to 212 nM.

`COc1ccc(-c2cc(Nc3cccc(N4CCOCC4)n3)[nH]n2)c(F)c1` [Compound 298, N-(3-(2-fluoro-4-methoxyphenyl)-1H-pyrazol-5-yl)-6-morpholinopyridin-2-amine]: in experiment [1], the IC50 came to 34 nM.

Take `C[C@@H]1CN(c2cc(Nc3cc(-c4ccc(OC(F)F)cc4)n[nH]3)ccn2)C[C@H](C)O1` [Compound 308, N-(3-(4-(difluoromethoxy)phenyl)-1H-pyrazol-5-yl)-2-((2R,6S)-2,6-dimethylmorpholino)pyridin-4-amine]: in experiment [1], the IC50 turned out to be 53 nM.
